Reference: patent US8106155B2, “Test kit for determining process for determining antibiotics containing a beta-lactam ring in a biological fluid” (Neogen Corporation, priority 1998, dated 2012)
Like-named read-outs stand apart in the source and are kept apart here.

Assays:
BlaR-CTD receptor [1] = biological target: T1, BlaR-CTD receptor (Bacillus licheniformis, UniProt P12287); experiment: 20-minute test: BlaR-CTD coupled to gold beads, membrane test device, milk; assay type: binding; settings: 47° C.; for Intensity 1st band: 20-minute test, scale 0 to 10, reference band 6
T1 construct: uses the BlaR-CTD receptor coupled to gold beads
T1 sequence (P12287 354-601): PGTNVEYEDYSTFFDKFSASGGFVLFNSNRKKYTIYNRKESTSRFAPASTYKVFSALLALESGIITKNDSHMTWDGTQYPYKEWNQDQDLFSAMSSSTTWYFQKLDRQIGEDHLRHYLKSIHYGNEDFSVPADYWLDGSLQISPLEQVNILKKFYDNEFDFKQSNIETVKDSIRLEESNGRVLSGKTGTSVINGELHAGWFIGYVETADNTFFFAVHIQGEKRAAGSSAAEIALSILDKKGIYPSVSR
Description: (§1) This example illustrates the detection in milk of antibiotics containing a β-lactam ring, which are controlled by the health authorities. The test described in this example uses the BlaR-CTD receptor coupled to gold beads which serve as labelling agents, and uses a support in the form of a test device comprising a solid support to which membranes are attached.
6 samples of fresh milk containing 0; 20; 30; 40; 50 and 60 ppb of ceftiofur, respectively, are prepared. Each of these solutions is then analyzed in the following way.
(§2) A 200 μl aliquot sample of milk and 45.27 μl of solution prepared in Example 1.1.3 are taken and placed in a glass flask. This mixture is incubated for 18 minutes at 47° C. A test device is taken and placed vertically in the glass flask such that the first end of the test device is in contact with the mixture and such that the second end rests on the wall of the glass flask. The mixture is left to migrate on the test device, while incubating the assembly for 2 minutes at 47° C.
(§3) An intensity value ranging from 0 to 10 is attributed to the bands detected, the value 10 being given to the most intense band and the value 0 being given to the least intense band. According to this scale, a value of 6 is assigned to the reference band. The intensity of the signal observed in the first band is inversely proportional to the amount of ceftiofur present in the sample.
In this example, when the first band has an intensity less than that of the second band, the test is considered as being positive.

BlaR-CTD receptor [2] = biological target: T1, BlaR-CTD receptor; experiment: 3-minute rapid test: BlaR-CTD coupled to gold beads, membrane test device, milk; assay type: binding; settings: 47° C.; for Intensity 1st band: 3-minute test, scale 0 to 10, reference band 6; for concentration detected in a sample of milk: test carried out in 3 minutes, positive when 1st band less intense than 2nd band
Description: as §1
7 samples of fresh milk containing 0; 1; 2; 3; 4; 5 and 6 ppb of penicillin G, respectively, are prepared. Each of these solutions is then analyzed in the following way:
as §2, with “1 minute” for “18 minutes”
as §3, with “penicillin G” for “ceftiofur”
In this example, when the first band has an intesity less than that of the second band, the test is considered as being positive.

[3] = biological target: soluble exocellular D-alanyl-D-alanine carboxypeptidase (enzyme R39) (Actinomadura sp., UniProt P39045); settings: cited from earlier work
Sequence of soluble exocellular D-alanyl-D-alanine carboxypeptidase (enzyme R39) (P39045 50-515): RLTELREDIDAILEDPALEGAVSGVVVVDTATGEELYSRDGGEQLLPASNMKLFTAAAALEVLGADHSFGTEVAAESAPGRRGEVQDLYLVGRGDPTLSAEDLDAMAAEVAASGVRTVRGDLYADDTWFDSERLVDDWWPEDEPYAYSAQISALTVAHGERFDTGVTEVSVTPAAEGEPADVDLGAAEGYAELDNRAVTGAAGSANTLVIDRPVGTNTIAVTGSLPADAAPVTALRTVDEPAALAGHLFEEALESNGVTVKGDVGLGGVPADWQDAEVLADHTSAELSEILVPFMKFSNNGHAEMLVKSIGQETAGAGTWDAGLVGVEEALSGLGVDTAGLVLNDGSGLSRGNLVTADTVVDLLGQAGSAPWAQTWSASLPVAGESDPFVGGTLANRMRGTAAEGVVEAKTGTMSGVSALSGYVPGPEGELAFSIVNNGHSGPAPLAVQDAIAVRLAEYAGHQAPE

Compound: CO/N=C(\C(=O)N[C@@H]1C(=O)N2C(C(=O)O)=C(CSC(=O)c3ccco3)CS[C@H]12)c1csc(N)n1 [ceftiofur]
- Intensity 1st band (BlaR-CTD receptor [1]; 20 ppb ceftiofur in milk): 6
- Intensity 1st band (BlaR-CTD receptor [1]; 30 ppb ceftiofur in milk): 5
- Intensity 1st band (BlaR-CTD receptor [1]; 40 ppb ceftiofur in milk): 4
- Intensity 1st band (BlaR-CTD receptor [1]; 50 ppb ceftiofur in milk): 3
- Intensity 1st band (BlaR-CTD receptor [1]; 60 ppb ceftiofur in milk): 3
- concentration detected in a sample of milk (BlaR-CTD receptor [1]; test in 20 minutes, positive when 1st band less intense than 2nd band): 30 ppb

Compound: CC1(C)S[C@@H]2[C@H](NC(=O)Cc3ccccc3)C(=O)N2[C@H]1C(=O)O [penicillin G]
- Intensity 1st band (BlaR-CTD receptor [2]; 1 ppb penicillin G in milk): 9
- Intensity 1st band (BlaR-CTD receptor [2]; 2 ppb penicillin G in milk): 9
- Intensity 1st band (BlaR-CTD receptor [2]; 3 ppb penicillin G in milk): 4
- Intensity 1st band (BlaR-CTD receptor [2]; 4 ppb penicillin G in milk): 0
- Intensity 1st band (BlaR-CTD receptor [2]; 5 ppb penicillin G in milk): 0
- Intensity 1st band (BlaR-CTD receptor [2]; 6 ppb penicillin G in milk): 0
- concentration detected in a sample of milk (BlaR-CTD receptor [2]): less than 4 ppb
- concentration determined in milk ([3]; total incubation time of 5 minutes): 10 ppb
- concentration determined in milk ([3]; total incubation time of 15 minutes): about 2.5 ppb

Compound: CC(=O)OCC1=C(C(=O)O)N2C(=O)[C@@H](NC(=O)CSc3ccncc3)[C@H]2SC1 [cephapirin]
- concentration detected in a sample of milk (BlaR-CTD receptor [2]): 20 ppb
